Reference: patent EP1219604A1, “METHOD FOR IMPROVING THE SOLUBILITY OF TRICYCLIC AMINO ALCOHOL DERIVATIVES” (Asahi Kasei Kabushiki Kaisha, priority 1999, dated 2001)
Read-outs that look alike come from different tables or passages of the source.

Assays:
[1] = Solubility in water, 1st fluid and 2nd fluid of the Japanese pharmacopeia disintegration test (shaking, filtration, HPLC); assay type: physicochemical; details: thermodynamic from solid
Experimental: That is, the solutions used were the water specified in the disintegration test method of the 13th edition of the Japanese pharmacopeia, the 1st fluid (a model of human gastric juice) and the 2nd fluid(a model of human intestinal juice). The processes for preparing them are as follows:
The 1st fluid (a model of human gastric juice) was an aqueous solution (pH about 1.2) prepared by dissolving sodium chloride (2.0 g) and hydrochloric acid (7.0 mL) in an amount of water such that the total volume is 1,000 mL.
The 2nd fluid (a model of human intestinal juice) was an aqueous solution (pH about 6.8) prepared by mixing a 0.2 M potassium dihydrogen phosphate aqueous solution (250 mL) with a 0.2 N sodium hydroxide aqueous solution (118 mL) and an amount of water such that the total volume is 1,000 mL.
The present compound (Compound A, B, C or D) in the amount of 20 mg was added to each solution (40 mL) set forth above, which was then shaken with a recipro-shaker (170 rpm) for 2 hours. Each sample (4 mL) obtained at 15, 30, 45, 60 and 120 minutes was filtered through a filter having a pore diameter of 0.45 µm to give a sample solution. The concentration of the said compound in the sample solution was determined by high performance liquid chromatography and the solubility was calculated. The high performance liquid chromatographic measurement was performed with HITACHI D-7000 (wave length: 254 nm; column: YMC-PACK C18; column temperature: 40°C; injection volume: 10 µL; flow rate: 1 mL/min; mobile phase: a solution obtained by dissolving sodium 1-octanesufonate (4.3 g) in a solution of phosphoric acid (1 mL) in water (1000 mL), and adding acetonitrile (400 mL) to 600 mL of the thus obtained solution . The retention time of each of Compounds A, B, C and D was about 20 minutes, about 14 minuets, about 25 minutes and about 27 minutes, respectively. […]
In this connection, the measurement was carried out according to the procedure of Reference Example 1.

[2] = Crystallinity by powder X-ray diffractometry; assay type: physicochemical; details: for crystallinity: equation of crystallinity
Source text: Whether a compound of the general formula (1) is amorphous or not, or the degree of amorphous status thereof can be determined based on its crystallinity, for example, measured by powder X-ray diffractometry. Generally, the degree of amorphous status can be indicated with the following equation. Degree of Amorphous status = 100 - Crystallinity [formula]
Powder X-ray diffractometry is a method comprising irradiating a powder sample with X-ray to compulsively oscillate electrons contained in the sample material, and measuring at each angle of diffraction the diffraction intensity of the coherent scattering X-ray caused by the compulsively oscillated electrons. The measurement data is indicated with the X-ray diffraction pattern as a diffraction intensity with respect to each angle of diffraction. […] Therefore, an amorphous substance can be distinguished from a crystalline substance based on their X-ray diffraction patterns and/or crystallinities. The measurement by powdery X-ray diffractometry in accordance with the present invention can be carried out with Shimadzu Powder X-ray Diffractometer (XRD-6000) under the following measurement conditions.
• Anticathode: Cu • X-ray tube voltage: 40 kV • X-ray tube current: 30 mA • Goniometer • Driving axle: θ-2θ • Scanning range: 3-49.98° • Scanning rate: 2°/min
The crystallinity was obtained with the soft of Shimazu Powder X-ray Diffractometer by carrying out the corrected calculation treatment of the Lorentz polarization factor of the measured data, calculating the integrated intensity of the peak derived from crystalline substance (Icr) and the integrated intensity of the peak derived from amorphous substance (Ia),respectively and calculating the concentration of crystalline moiety in the test sample, that is the crystallinity based on the ratio thereof by the following equation: x =(1)/(1 + K ×(I a)/(I cr))× 100 [formula] wherein X is a crystallinity; Icr is an integrated intensity of crystalline moiety; Ia is an integrated intensity of amorphous moiety; K is a ratio of the crystalline moiety of X ray intensity scattered from a certain amount of a material to the amorphous moiety thereof (the calculation is usually done under K=1).
Each standard sample was subjected to a powder X-ray diffraction measurement to determine the peak height and crystallinity of each standard sample (the powder X-ray diffraction pattern of the standard samples 1, 2, 3 and 4 being shown in Figures 1, 8, 9 and 10, respectively). A measurement by powdery X-ray diffractometry was carried out with Shimadzu Powder X-ray Diffractometer (XRD-6000) under the following measurement conditions.
Measurement condition: • Anticathode: Cu • X-ray tube voltage: 40 kV • X-ray tube current: 30 mA • Goniometer • Driving axle: θ-2θ • Scanning range: 3-50° • Scanning rate: 2°/min
The crystallinity was calculated with the soft of Shimadzu Powder X-ray Diffractometer. The thus obtained crystallinity of each standard sample was as follows:
These measurements were carried out based on the height of a diffraction peak as an indication, wherein the diffraction peak is characteristic of Compound A. The characteristic diffraction peak is a diffraction peak which can be distinguished from the diffraction peak derived from a pharmaceutically acceptable carrier and can characterize Compound A. Representative examples of the diffraction peak characteristic of Compound A include peaks at θ-2θ of about 8.5°, about 12.8°, about 16.2°, about 20.4°, about 21.4°, about 25.2° and about 26.9°. It is preferred to select a diffraction peak in which the relation between the height of diffraction peak and the crystallinity has a clear linearity.
With respect to each diffraction peak, a graph showing the correlation between the peak height and the crystallinity was made in which the peak height of each standard sample (vertical axis) is potted against the crystallinity (horizontal axis). […]

[3] = pH 1.2, simulated gastric fluid, 1st fluid (model of human gastric juice, pH about 1.2), after 2 hours, crystal form, read-out: Solubility (mg/mL) 1st fluid
[4] = pH 6.8, fassgf or other biorelevant, 2nd fluid (model of human intestinal juice, pH about 6.8), after 2 hours, crystal form, read-out: Solubility (mg/mL) 2nd fluid
[5] = water, solubility after 2 hours, compound in crystal form, 20 mg in 40 mL, read-out: Solubility (mg/mL) Water
[6] = pH 1.2, simulated gastric fluid
[7] = pH 6.8, fassgf or other biorelevant

solubility at 2 h [1, 3] | solubility at 2 h [1, 4] | solubility at 2 h [1, 5] | crystallinity, another lot separately prepared [2] | crystallinity [2] | solubility at 2 h [1, 6] | solubility at 2 h [1, 7] | solubility at 2 h ([1]; water) | SMILES
0.003 mg/mL | 0.003 mg/mL | 1.34 mg/mL | 70.5% | 61.1% | – | – | – | CS(=O)(=O)Nc1cc([C@@H](O)CNCCOc2ccc3c(c2)[nH]c2ccccc23)ccc1O.O=C(O)C(O)C(O)C(=O)O [Compound B, (R)-N-[5-[2-[2-(9H-carbazol-2-yloxy)ethylamino]-1-hydroxyethyl]-2-hydroxyphenyl]methanesulfonamide D-tartrate]
0.002 mg/mL | 0.005 mg/mL | 0.123 mg/mL | 88.8% | 83.5% | – | – | – | CS(=O)(=O)Nc1cccc([C@@H](O)CNCCOc2ccc3c(c2)[nH]c2ccccc23)c1.Cl [Compound A, (R)-N-[3-[2-[2-(9H-carbazol-2-yloxy)ethylamino]-1-hydroxyethyl]phenyl]methanesulfonamide hydrochloride]
– | – | – | – | – | 0.035 mg/mL | 0.012 mg/mL | 0.701 mg/mL | CS(=O)(=O)Nc1cc([C@@H](O)CNCCOc2ccc3c(c2)[nH]c2ccccc23)ccc1Br.Cl [Compound D, (R)-N-[5-[2-[2-(9H-carbazol-2-yloxy)ethylamino]-1-hydroxyethyl]-2-bromophenyl]methanesulfonamide hydrochloride]
– | – | – | 72.0% | 70.3% | 0.008 mg/mL | 0.014 mg/mL | 0.471 mg/mL | CS(=O)(=O)Nc1cc([C@@H](O)CNCCOc2ccc3c(c2)[nH]c2ccccc23)ccc1Cl.Cl [Compound C, (R)-N-[5-[2-[2-(9H-carbazol-2-yloxy)ethylamino]-1-hydroxyethyl]-2-chlorophenyl]methanesulfonamide hydrochloride]
